Measurements: ChEMBL document CHEMBL1140648, “Structure-activity relationships of bioisosteres of a carboxylic acid in a novel class of bacterial translation inhibitors” (2007)
≈ marks a conversion by molar mass, not a printed value.

Experiments:
Format in all cases: functional
[1] = system: Staphylococcus aureus; test: Inhibition of transcription/translation in Staphylococcus aureus at 100 uM
[2] = system: Staphylococcus aureus; test: Antibacterial activity against Staphylococcus aureus UC9218
[3] = system: Staphylococcus aureus; test: Antibacterial activity against Staphylococcus aureus UC9218 in presence of 5% HSA
[4] = system: Staphylococcus aureus; test: Antibacterial activity against Staphylococcus aureus UC9218 in presence of 10% HSA
[5] = system: Staphylococcus aureus; test: Ratio of MIC for Staphylococcus aureus UC9218 in presence of 5% HSA to MIC for Staphylococcus aureus UC9218 in absence of HSA

| Compound | inhibition at 100 µM [1] | MIC [2] | MIC [3] | MIC [4] | Ratio [5] |
| --- | --- | --- | --- | --- | --- |
| CN(c1ccc(Cl)cc1)S(=O)(=O)c1ccc(C(=O)Nc2ccc(Br)cc2C(=O)O)cc1 | 79% | 8 µg/mL (≈ 15.3 µM) | 128 µg/mL | > 128 µg/mL | 8 |
| CN(c1ccc(Cl)cc1)S(=O)(=O)c1ccc(C(=O)Nc2ccc(Br)cc2-c2noc(=O)[nH]2)cc1 | 98% | 8 µg/mL (≈ 14.2 µM) | > 128 µg/mL | > 128 µg/mL | >8 |
| CN(c1ccc(Cl)cc1)S(=O)(=O)c1ccc(C(=O)Nc2ccc(Br)cc2C(O)(C(F)(F)F)C(F)(F)F)cc1 | 41% | 0.5 µg/mL (≈ 0.774 µM) | 64 µg/mL | > 128 µg/mL | 128 |
| CN(c1ccc(Cl)cc1)S(=O)(=O)c1ccc(C(=O)Nc2ccc(Br)cc2CO)cc1 | 4% | > 128 µg/mL |  |  |  |
| CN(c1ccc(Cl)cc1)S(=O)(=O)c1ccc(C(=O)Nc2ccc(Br)cc2C(N)=O)cc1 | 13% | > 128 µg/mL |  |  |  |
| CONC(=O)c1cc(Br)ccc1NC(=O)c1ccc(S(=O)(=O)N(C)c2ccc(Cl)cc2)cc1 | 7% | > 128 µg/mL |  |  |  |
| CN(c1ccc(Cl)cc1)S(=O)(=O)c1ccc(C(=O)Nc2ccc(Br)cc2Cc2nnn[nH]2)cc1 | 46% | > 128 µg/mL |  |  |  |
| CN(c1ccc(Cl)cc1)S(=O)(=O)c1ccc(C(=O)Nc2ccc(Br)cc2-c2n[nH]c(=O)o2)cc1 | 60% | 2 µg/mL (≈ 3.55 µM) |  | > 128 µg/mL |  |
| CN(c1ccc(Cl)cc1)S(=O)(=O)c1ccc(C(=O)Nc2ccc(Br)cc2S(N)(=O)=O)cc1 | 0% | > 128 µg/mL |  |  |  |
| CC(O)c1cc(Br)ccc1NC(=O)c1ccc(S(=O)(=O)N(C)c2ccc(Cl)cc2)cc1 (stereo unspecified) | 7% | > 128 µg/mL |  |  |  |
| Cc1cc(Br)ccc1NC(=O)c1ccc(S(=O)(=O)N(C)c2ccc(Cl)cc2)cc1 | 12% | > 128 µg/mL |  |  |  |
| CN(c1ccc(Cl)cc1)S(=O)(=O)c1ccc(C(=O)Nc2ccc(Br)cc2-c2nnn[nH]2)cc1 | 96% | 16 µg/mL (≈ 29.2 µM) |  |  |  |
| CN(c1ccc(Cl)cc1)S(=O)(=O)c1ccc(C(=O)Nc2ccc(Br)cc2NS(C)(=O)=O)cc1 | 19% | > 128 µg/mL |  |  |  |
| CN(c1ccc(Cl)cc1)S(=O)(=O)c1ccc(C(=O)Nc2ccc(Br)cc2Br)cc1 | 6% | > 128 µg/mL |  |  |  |
| CN(c1ccc(Cl)cc1)S(=O)(=O)c1ccc(C(=O)Nc2ccc(Br)cc2NS(=O)(=O)C(F)(F)F)cc1 | 72% | 32 µg/mL (≈ 51 µM) |  |  |  |
| CC(=O)c1cc(Br)ccc1NC(=O)c1ccc(S(=O)(=O)N(C)c2ccc(Cl)cc2)cc1 | 0% | > 128 µg/mL |  |  |  |
| CN(c1ccc(Cl)cc1)S(=O)(=O)c1ccc(C(=O)Nc2ccc(Br)cc2)cc1 | 11% | > 128 µg/mL |  |  |  |
| CN(c1ccc(Cl)cc1)S(=O)(=O)c1ccc(C(=O)Nc2ccc(Br)cc2[N+](=O)[O-])cc1 | 0% | > 128 µg/mL |  |  |  |
| CN(c1ccc(Cl)cc1)S(=O)(=O)c1ccc(C(=O)Nc2ccc(Br)cc2C#N)cc1 | 0% | > 128 µg/mL |  |  |  |
| CO[C@@H]1[C@@H](OC(N)=O)[C@@H](O)[C@H](Oc2ccc3c(O)c(NC(=O)c4ccc(O)c(CC=C(C)C)c4)c(=O)oc3c2C)OC1(C)C [NOVOBIOCIN] |  | > 0.125 µg/mL | 0.5 µg/mL | 1 µg/mL |  |
